According to ChEMBL document CHEMBL1136400, “Substituted bridged phenyl piperidines: orally active growth hormone secretagogues” (Bioorg Med Chem Lett, 2003):

Species: Rattus norvegicus
Experiment: Effective concentration for their ability to release growth hormone in the rat pituitary cell assay
Format: functional, organism-based, Pituitary gland cell
Details: Rattus norvegicus, Pituitary gland cell

For `CC(C)(N)C(=O)N[C@H](COCc1ccccc1)C(=O)N1CCC2(CC1)CN(S(C)(=O)=O)c1ccccc12` [IBUTAMOREN], which EC50 is on record?
The EC50 was 1 nM.

For `CC(C)(N)C(=O)N[C@H](CCCc1ccccc1)C(=O)N1C2CCC1CC(c1ccccc1)C2` (mixture of isomers), which EC50 is on record?
Its EC50 is 24 nM.

`CCNC(=O)c1ccccc1C1CC2CCC(C1)N2C(=O)[C@@H](CCCc1ccccc1)NC(=O)C(C)(C)N` (mixture of isomers) was tested. Which EC50 did it give?
Its EC50 is 1.3 nM.

Which EC50 does the source give for `Cc1ccccc1C1CC2CCC(C1)N2C(=O)[C@@H](CCCc1ccccc1)NC(=O)C(C)(C)N` (mixture of isomers) here?
Its EC50 is 78.4 nM.

How did the EC50 turn out when `Cc1ccccc1C1CC2CCC(C1)N2C(=O)[C@@H](Cc1c[nH]c2ccccc12)NC(=O)C(C)(C)N` (mixture of isomers) was run?
Its EC50 is 33.2 nM.

For `CC(C)(N)C(=O)N[C@H](Cc1c[nH]c2ccccc12)C(=O)N1C2CCC1CC(c1ccccc1)C2` (mixture of isomers), which EC50 is on record?
Its EC50 is 62.8 nM.

Same assay, conditions: pituitary gland cell

How did the EC50 turn out when `CCOC(=O)c1ccccc1C1CC2CCC(C1)N2C(=O)[C@@H](CCCc1ccccc1)NC(=O)C(C)(C)N` (stereo in doubt; 26h) was run?
The EC50 was 324 nM.

Which EC50 does the source give for `CC(C)(N)C(=O)N[C@H](CCCc1ccccc1)C(=O)N1C2CCC1CC(c1ccccc1C(=O)O)C2` (stereo in doubt; 26i) here?
Its EC50 is greater than 500 nM.

`CC(C)(N)C(=O)N[C@H](CCCc1ccccc1)C(=O)N1C2CCC1CC(c1ccccc1C(=O)O)C2` (stereo in doubt; 26g) was tested. Which EC50 did it give?
Its EC50 is 9.6 nM.

How did the EC50 turn out when `CCOC(=O)c1ccccc1C1CC2CCC(C1)N2C(=O)[C@@H](CCCc1ccccc1)NC(=O)C(C)(C)N` (mixture of isomers) was run?
Its EC50 is 90 nM.

`CCOC(=O)c1ccccc1C1CC2CCC(C1)N2C(=O)[C@@H](CCCc1ccccc1)NC(=O)C(C)(C)N` (stereo in doubt; 26f) was tested. Which EC50 did it give?
The EC50 was 48 nM.
